This note sets out measurements from patent US20240287138A1, “CYCLIC PEPTIDES FOR INHIBITING TNF RECEPTOR 1 ACTIVITY” (Merck Sharp & Dohme LLC, priority 2023, published 2024).

Where two headings read alike, the source gives them in different places. Numbered stars: 1 amine (or outer) side, 2 acyl side, 3 side chain; on linkers, the order of the positions; unused ones are H or OH. Bridge positions count the residues as written; N and C are the ends. Square brackets hold non-standard residues; d marks the D form. Peptide text beside a SMILES is read from it. Trp(βS-Me,7-OMe) = COc1cccc2c([C@H](C)[C@H](N)C(=O)O)c[nH]c12; Trp(7-CN) = N#Cc1cccc2c(C[C@H](N)C(=O)O)c[nH]c12; Trp(7-Cl) = N[C@@H](Cc1c[nH]c2c(Cl)cccc12)C(=O)O; Phe(3-CONH2) = NC(=O)c1cccc(C[C@H](N)C(=O)O)c1; Phe(4-CONH2) = NC(=O)c1ccc(C[C@H](N)C(=O)O)cc1; Phe(4-COOH) = N[C@@H](Cc1ccc(C(=O)O)cc1)C(=O)O; Trp(7-aza) = N[C@@H](Cc1c[nH]c2ncccc12)C(=O)O; Phe(4-CH2NH2) = NCc1ccc(C[C@H](N)C(=O)O)cc1; X23 = N[C@@H]1CCN([*:1])[C@H](C(=O)[*:2])C1; Pip(5R-OH) = O=C(O)[C@@H]1CC[C@@H](O)CN1; X1 = O=C([C@@H]1CC[C@H](N[*:1])C1)[*:2]; Nle(5,5-F2) = CC(F)(F)CC[C@H](N)C(=O)O; Pip(4-aza) = O=C(O)[C@@H]1CNCCN1; 4Pal = N[C@@H](Cc1ccncc1)C(=O)O; NMeE = CN[C@@H](CCC(=O)O)C(=O)O; dHyp = O=C(O)[C@H]1C[C@H](O)CN1; Pip = O=C(O)[C@@H]1CCCCN1; αMeS = C[C@](N)(CO)C(=O)O; Nle = CCCC[C@H](N)C(=O)O; Sar = CNCC(=O)O Where only a bound is given, the exact number is not on record here.

Experiment [1] deals with T1, human soluble TNFR1 (sTNFR1) (Homo sapiens, UniProt P19438).
T1 construct: made in house; host or cells: Sf21 (baculovirus)
T1 sequence (P19438 with tags, fused parts or gaps): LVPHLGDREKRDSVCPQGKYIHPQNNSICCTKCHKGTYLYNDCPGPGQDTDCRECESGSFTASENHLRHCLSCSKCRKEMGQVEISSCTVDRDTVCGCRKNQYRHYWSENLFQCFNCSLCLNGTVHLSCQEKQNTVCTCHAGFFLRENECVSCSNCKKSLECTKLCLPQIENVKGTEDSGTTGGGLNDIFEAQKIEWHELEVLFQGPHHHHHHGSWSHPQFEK
The experiment is described as follows: Human sTNFR1-peptide displacement assay (LanthaScreen Eu TR-FRET binding assay). A digest of the protocol:
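Readout is the 665/615 nm TR-FRET ratio (Eu anti-His donor, streptavidin-Alexa647 acceptor), normalized to DMSO and saturating displacer, fit by Morrison-based five-parameter logistic for Kd^app. His-tagged sTNFR1 (1-211) prebound to 100 nM biotinylated peptide SEQ ID NO.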
A general note: Time-resolved FRET reads energy transfer from a long-lived donor to a nearby acceptor.

The target of experiment [2] is T2, human TNFR1 extracellular domain (ECD) protein (Homo sapiens, UniProt P19438).
T2 construct: HRV 3C protease cleavage site (C); 6His (C, cleaved yes); made in house; host or cells: Sf21 insect cells (baculovirus), secreted
T2 sequence (P19438 30-211): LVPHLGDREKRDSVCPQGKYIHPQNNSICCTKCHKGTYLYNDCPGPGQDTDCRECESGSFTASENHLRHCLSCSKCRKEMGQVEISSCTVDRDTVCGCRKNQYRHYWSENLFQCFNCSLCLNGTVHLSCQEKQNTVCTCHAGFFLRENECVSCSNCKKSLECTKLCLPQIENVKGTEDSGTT
Kind of experiment: SPR binding affinity to captured human TNFR1 ECD. The method, boiled down:
(§1)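 Biotinylated avi-tagged human TNFR1 or TNFR2 ECD, expressed in Sf21 insect cells, captured on streptavidin SPR chip; peptide analytes run in 10 mM HEPES pH 7.4, 150 mM NaCl, 3 mM EDTA, 0.05% P20, 2% DMSO. kon and koff measured, affinity KA calculated.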

The target of the next experiment is T3, human TNFR2 ECD protein (Homo sapiens, UniProt P20333).
T3 construct: HRV 3C protease cleavage site (C); 6His (C, cleaved yes); made in house; host or cells: Sf21 insect cells (baculovirus), secreted
T3 sequence (P20333 23-257): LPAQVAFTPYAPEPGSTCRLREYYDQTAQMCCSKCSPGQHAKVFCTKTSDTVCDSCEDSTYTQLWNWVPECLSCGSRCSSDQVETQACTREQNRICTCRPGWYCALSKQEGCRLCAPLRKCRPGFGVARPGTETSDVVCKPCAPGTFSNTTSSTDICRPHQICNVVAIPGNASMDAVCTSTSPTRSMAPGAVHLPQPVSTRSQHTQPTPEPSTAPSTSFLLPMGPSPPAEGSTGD
Kind of experiment: SPR off-target binding (selectivity) to human TNFR2 ECD. A digest of the protocol: as §1

Setting [3] is: displacement of biotinylated peptide SEQ ID NO. 1 from sTNFR1, 20 point titration, 5-parameter fit based on Morrison equation (tight binding), read-out: TR-FRET Kd^app.
[4] abbreviates: biotinylated human TNFR1 ECD on streptavidin chip, from kon and koff, read-out: SPR hTNFR1 KD.
[5] abbreviates: biotinylated human TNFR2 ECD on streptavidin chip, read-out: SPR hTNFR2 KD.

With `CCCC[C@@H]1NC(=O)[C@@H]2CC[C@@H](C2)NC(=O)[C@H]([C@@H](C)c2c[nH]c3c(OC)cccc23)NC(=O)CN(C)C(=O)[C@H](Cc2cccc(C(N)=O)c2)NC(=O)[C@H](Cc2ccc(C(=O)O)cc2)NC(=O)[C@](C)(CO)NC(=O)[C@H](Cc2c[nH]c3c(Cl)cccc23)NC(=O)[C@H](Cc2ccncc2)NC(=O)[C@H](CC(N)=O)NC(=O)[C@H](CCC(=O)O)N(C)C(=O)[C@H](Cc2c[nH]c3ccccc23)NC(=O)[C@@H]2CCCCN2C(=O)[C@H](Cc2ccncc2)NC1=O` [SEQ ID NO. 221] (cyclo([4Pal][Pip]W[NMeE]N[4Pal][Trp(7-Cl)][αMeS][Phe(4-COOH)][Phe(3-CONH2)][Sar][Trp(βS-Me,7-OMe)][X1][Nle])), the Kd in experiment [1] (setting [3]) was 0.31 nM; in experiment [2] (setting [4]), 0.14 nM; on human TNFR2 ECD protein (setting [5]), greater than 1000 nM.
In the same order, the values of `CCCC[C@@H]1NC(=O)[C@@H]2CC[C@@H](C2)NC(=O)[C@H]([C@@H](C)c2c[nH]c3c(OC)cccc23)NC(=O)CN(C)C(=O)[C@H](Cc2ccc(C(N)=O)cc2)NC(=O)[C@H](Cc2ccc(C(N)=O)cc2)NC(=O)[C@](C)(CO)NC(=O)[C@H](Cc2c[nH]c3c(C#N)cccc23)NC(=O)[C@H](Cc2ccc(C(=O)O)cc2)NC(=O)[C@H](CC(N)=O)NC(=O)[C@H]2C[C@H](O)CN2C(=O)[C@H](Cc2c[nH]c3ncccc23)NC(=O)[C@@H]2CC[C@@H](O)CN2C(=O)[C@H](Cc2ccncc2)NC1=O` [SEQ ID NO. 254] (cyclo([4Pal][Pip(5R-OH)][Trp(7-aza)][dHyp]N[Phe(4-COOH)][Trp(7-CN)][αMeS][Phe(4-CONH2)][Phe(4-CONH2)][Sar][Trp(βS-Me,7-OMe)][X1][Nle])) are 0.06 nM, 0.02 nM and greater than 1000 nM.
For the compound `CCCC[C@@H]1NC(=O)[C@@H]2CC[C@@H](C2)NC(=O)[C@H]([C@@H](C)c2c[nH]c3c(OC)cccc23)NC(=O)CN(C)C(=O)[C@H](Cc2ccc(CN)cc2)NC(=O)[C@H](Cc2ccc(C(=O)O)cc2)NC(=O)[C@](C)(CO)NC(=O)[C@H](Cc2c[nH]c3c(Cl)cccc23)NC(=O)[C@H](Cc2ccncc2)NC(=O)[C@H](CC(N)=O)NC(=O)[C@H](CCC(=O)O)N(C)C(=O)[C@H](Cc2c[nH]c3ccccc23)NC(=O)[C@@H]2CNCCN2C(=O)[C@H](Cc2ccncc2)NC1=O` [SEQ ID NO. 269] (cyclo([4Pal][Trp(7-Cl)][αMeS][Phe(4-COOH)][Phe(4-CH2NH2)][Sar][Trp(βS-Me,7-OMe)][X1][Nle][4Pal][Pip(4-aza)]W[NMeE]N)), the Kd in experiment [1] is 0.08 nM; in experiment [2], 0.1 nM; at human TNFR2 ECD protein, greater than 1000 nM.
As to `CCCC[C@@H]1NC(=O)CSC[C@@H](C(N)=O)NC(=O)[C@H]([C@@H](C)c2c[nH]c3c(OC)cccc23)NC(=O)CN(C)C(=O)[C@H](Cc2ccc(O)cc2)NC(=O)[C@H](Cc2ccc(C(=O)O)cc2)NC(=O)[C@](C)(CO)NC(=O)[C@H](Cc2c[nH]c3c(Cl)cccc23)NC(=O)[C@H](Cc2ccncc2)NC(=O)[C@H](CC(N)=O)NC(=O)[C@H](CCC(=O)O)N(C)C(=O)[C@H](Cc2c[nH]c3ccccc23)NC(=O)[C@@H]2C[C@H](N)CCN2C(=O)[C@H](Cc2ccncc2)NC1=O` [SEQ ID NO. 271] ({CH2CO}-[Nle][4Pal][X23]W[NMeE]N[4Pal][Trp(7-Cl)][αMeS][Phe(4-COOH)]Y[Sar][Trp(βS-Me,7-OMe)]C-NH2; thioether N-14), the Kd in experiment [1] is 0.95 nM; in experiment [2], 0.28 nM; at human TNFR2 ECD protein it was greater than 1000 nM.
In the same order, the values of `COc1cccc2c([C@H](C)[C@@H]3NC(=O)CN(C)C(=O)[C@H](Cc4ccc(O)cc4)NC(=O)[C@H](Cc4ccc(C(=O)O)cc4)NC(=O)[C@](C)(CO)NC(=O)[C@H](Cc4c[nH]c5c(Cl)cccc45)NC(=O)[C@H](Cc4ccncc4)NC(=O)[C@H](CC(N)=O)NC(=O)[C@H](CCC(=O)O)N(C)C(=O)[C@H](Cc4c[nH]c5ccccc45)NC(=O)[C@@H]4CNCCN4C(=O)[C@H](Cc4ccncc4)NC(=O)[C@H](CCC(C)(F)F)NC(=O)[C@@H]4CC[C@@H](C4)NC3=O)c[nH]c12` [SEQ ID NO. 275] (cyclo([4Pal][Trp(7-Cl)][αMeS][Phe(4-COOH)]Y[Sar][Trp(βS-Me,7-OMe)][X1][Nle(5,5-F2)][4Pal][Pip(4-aza)]W[NMeE]N)) are 0.36 nM, 0.3 nM and greater than 1000 nM.
